*1 amine or outer side, *2 acyl side, *3 side chain or, on linkers, in order; H or OH if unused. Primed or numbered codes have the meaning given here. Where no end group is shown, it is not given here. Side-chain parts run from the residue outwards. [ ]: non-standard residue; d: D form. The star is where a group is joined. C18 diacid = O=C(O)CCCCCCCCCCCCCCCCC(=O)*; γGlu = O=C(O)[C@H](CCC(=O)[*:2])N[*:1]; Stearoyl = CCCCCCCCCCCCCCCCCC(=O)*; Palmitoyl = CCCCCCCCCCCCCCCC(=O)*; PEG2′ = not defined here; Aib = CC(C)(N)C(=O)O
Tests used:
[1] = system: CCl4-induced hepatic fibrosis mice; assay: CCl4-induced hepatic fibrosis in mice; format: in vivo, C57 mice; settings: 500 μg/kg subcutaneous once every two days, 6 weeks
Protocol: 6-8-week-old C57 mice with body weight of 20-25 g at SPF level were provided by Guangdong Medical Laboratory Animal Center and tested by SPF level laboratory in Laboratory Animal Center of Guangdong Pharmaceutical University. C57 mice were divided into control group, hepatic fibrosis model group and treatment group, 8 mice for each group. A mouse was subject to intraperitoneal injection with 20% CCl4 (2 mL/kg, diluted with olive oil at ratio of 1:4) twice a week for continuous 6 weeks to form a stable hepatic fibrosis animal model. For the treatment group, one of subcutaneous injection compounds 2, 6 and 22 with 500 μg/kg of body weight was used respectively once every two days for continuous 6 weeks. Olive oil with same volume and same frequency was administered for the control group and stopped until the end of 6-week experiment. After the end of the experiment, the mice were subject to anesthesia to collect serum and liver specimens. The liver was fixed with 10% formalin and embedded with paraffin.

[2] = system: Hepatic stellate cell strain LX-2; assay: In vitro inhibition of hepatic fibrosis: expression of LX-2 cell activation marker α-SMA (Western Blot, α-SMA/β-actin); format: cell-based, human; settings: LX-2 cells; for Relative expression of α-SMA (α-SMA/β-actin, %): 48 hours, negative control = 100%
Protocol: Hepatic stellate cell strain LX-2 was selected to study and observe the effect of different doses of test substances on the expression of LX-2 cell activation marker […]. Hepatic stellate cell LX-2 was laid on 35 mm cell culture plate, cultured with DMEM (high glucose)+10% FBS+1% double-antibody culture medium (Thermo Fisher), placed overnight when the cells grew to 70% convergence at 37° C. and under the condition of 5% CO2, and treated with the above compounds 1-37 (dissolved in PBS) for 48 hours the next day morning to extract cell protein, carry out Western Blot, and take β-actin as internal reference and analyze the expression quantities of α-SMA and β-actin by a gray level of Image J 1.50i. PBS with the same volume as that in experimental group was added in negative control. […] The integrating gray level of α-SMA/β-actin in the negative control group was 100% to analyze the in vitro inhibition activity of hepatic fibrosis of tested polypeptide.

[3] = system: db/db diabetic obese mice; format: in vivo; settings: 10 μg/mouse subcutaneous once every two days, 18 days
Protocol: 12-week-old db/db diabetic obese mice were randomly grouped into 3 groups (12-hour fasting before grouping), 6 mice in each group. Mice in each group were injected subcutaneously at a dose of 10 μg/mouse, and mice in the blank group were injected subcutaneously with PBS. The volume for each group was 0.25 ml/mouse once every two days (at 48-hour interval) for 18 days. At the end of the experiment, blood was taken from the orbital venous plexus of each mouse to measure glycosylated hemoglobin (HbAlc), insulin (INS), triglyceride (TG) and total cholesterol (TC) levels in the serum of the mouse. The liver, pancreas, heart, lungs and spleen were taken for HE pathological staining at the same time. GraphPad Prismversion6 software was used for statistical analysis.

[4] = system: high fat diet-induced hyperlipidemic mice; assay: High fat diet-induced NAFLD and hyperlipemia in mice; format: in vivo, C57 mice; settings: 500 μg/kg subcutaneous once every two days, 12 weeks
Protocol: 6-8-week-old C57 mice with body weight of 20-25 g at SPF level were provided by Guangdong Medical Laboratory Animal Center and tested by SPF level laboratory in Laboratory Animal Center of Guangdong Pharmaceutical University. C57 mice were divided into control group, hepatic fibrosis model group and treatment group, 8 mice for each group. The mice were fed with high fat diet (HFD) for 12 weeks. For the treatment group, subcutaneous injection compounds 2 and 6 with 500 μg/kg of body weight were used once every two days for continuous 12 weeks. PBS with same volume and same frequency was administered for the control group. After the end of the experiment, the mice were subject to anesthesia to collect serum and liver specimens.

Which “ALT level of serum” value [1] does the source give for “His-(D-Ser)-Gln-Gly-Thr-Phe-Thr-Ser-Asp-Tyr-Ser-Lys-Tyr-Leu-Asp-Ser-Lys(PEG2-PEG2-γGlu-CO(CH2)16CH3)-Ala-Ala-His-Asp-Phe-Val-Glu-Trp-Leu-Leu-Asn-Gly-Gly-Pro-Ser-Ser-Gly-Ala-Pro-Pro-Pro-Ser-NH2 (H[dS]QGTFTSDYSKYLDSK([PEG2′-PEG2′-γGlu-Stearoyl])AAHDFVEWLLNGGPSSGAPPPS-NH2) [Compound 22]” here?
The value was “obviously reduce”.

And the “CCl4-induced liver injury and fibrosis stage (HE, Sirius Red)” value [1]?
The value was “obviously improved”.

What about the “Relative expression of α-SMA (α-SMA/β-actin, %)” value ([2]; 1 μM) of the same substance?
Its value is 90.56%.

With “His-Aib-Gln-Gly-Thr-Phe-Thr-Ser-Asp-Lys(PEG2-PEG2-γGlu-CO(CH2)16CO2H)-Ser-Lys-Tyr-Leu-Asp-Aib-Arg-Arg-Ala-Gln-Asp-Phe-Val-Gln-Trp-Leu-Leu-Asp-Gly-Gly-Pro-Ser-Ser-Gly-Ala-Pro-Pro-Pro-Ser-NH2 (H[Aib]QGTFTSDK([PEG2′-PEG2′-γGlu-C18 diacid])SKYLD[Aib]RRAQDFVQWLLDGGPSSGAPPPS-NH2) [Compound 19]” as the substance, how does the “Inhibition of LX-2 cell activation marker α-SMA (in words, from Table 2)” value [2] read?
Its value is “obviously reduce”.

And the “Effect on expression of α-SMA (in words)” value ([2]; 0.1 μM, 1 μM and 5 μM)?
Its value is “reduce the expression of α-SMA under all concentrations”.

And the “Relative expression of α-SMA (α-SMA/β-actin, %)” value ([2]; 0.1 μM)?
The value was 71.48%.

And the “Relative expression of α-SMA (α-SMA/β-actin, %)” value ([2]; 1 μM)?
The value was 43.46%.

What about the “Relative expression of α-SMA (α-SMA/β-actin, %)” value ([2]; 5 μM) of the same substance?
The value was 39.75%.

Which results are given for “His-(D-Ser)-Gln-Gly-Thr-Phe-Thr-Ser-Asp-Tyr-Ser-Lys-Tyr-Leu-Asp-Lys(PEG2-PEG2-γGlu-CO(CH2)14CH3)-Arg-Arg-Ala-Gln-Asp-Phe-Val-Gln-Trp-Leu-Met-Asn-Thr-Gly-Gly-Pro-Ser-Ser-Gly-Ala-Pro-Pro-Pro-Ser-NH2 (H[dS]QGTFTSDYSKYLDK([PEG2′-PEG2′-γGlu-Palmitoyl])RRAQDFVQWLMNTGGPSSGAPPPS-NH2) [Compound 6]”?
ALT level of serum [1]: obviously reduce; CCl4-induced liver injury and fibrosis stage (HE, Sirius Red) [1]: obviously improved; Atrophy lesions of pancreatic islets (HE staining) [3]: significantly improve; Inhibition of liver lipoid vacuolar degeneration and lipid inflammation, comparison between compounds [3]: better inhibition effect; Liver lipoid vacuolar degeneration and lipid inflammation (HE staining) [3]: significantly inhibit; Total cholesterol (TC) level in serum [3]: obviously inhibit; Triglyceride (TG) level in serum [3]: obviously inhibit; Glycosylated hemoglobin (HbAlc) level in serum ([3]; vs blank group): significantly reduced; Insulin (INS) level in serum ([3]; vs blank group): up-regulated; Inhibition of LX-2 cell activation marker α-SMA (in words, from Table 2) [2]: obviously reduce; Relative expression of α-SMA (α-SMA/β-actin, %) ([2]; 1 μM): 41.19%; Fatty liver complicated by hepatic fibrosis (Sirius red) [4]: effectively inhibit fatty liver complicated by hepatic fibrosis; HFD-induced increase of body weight [4]: effectively inhibit; Hepatic triglyceride (TG) content [4]: effectively reduce; Liver lipid deposition (Oil Red O) [4]: effectively reduce; Liver lipoid degeneration and non-alcoholic steatohepatitis (liver tissue biopsy) [4]: inhibit liver lipoid degeneration and non-alcoholic steatohepatitis; Treatment effect on liver lipid deposition and hepatic TG compared with Liraglutide [4]: obviously better than Liraglutide; Control of body weight, comparison between treatments ([4]; compared with liraglutide): most obviously
